The source of these data is publication PMC9309159, “Identification of heptapeptides targeting a lethal bacterial strain in septic mice through an integrative approach” (Signal Transduction and Targeted Therapy, 2022).

Entries after “also recorded” stand apart in the source; their conditions may differ.

The test system of test [1] is E. coli MSI001. Description: Biofilm detection (crystal violet, A570). In kind it is cell-based, Escherichia coli. Particulars: peptide 0-4 μmol/L, 37 °C, 3 days, A570, n = 5. The method, then:
Fig. 6 Antimicrobial activity of the C7C-LL37 fusion peptides in vitro. a Primary structures and physical properties of the C7C and LL37 fusion peptides, including LL37, VTK-LL37, LL37-VTK, KYY-LL37 and LL37-KYY, ISS-LL37, INS-LL37. Net charge, PI and GRAVY values were acquired as described above. b Inhibitory effect of C7C-LL37 fusion peptides on bacterial growth. A C7C-LL37 fusion peptide or LL37 alone was added to the cultured bacterial strain MSI001 (1 × 10^3 CFU) at final concentrations of 0.25 μmol/L, 0.5 μmol/L and 1 μmol/L. Sterile DPBS was used as control. After incubation with the C7C-LL37 or LL37 peptides at 37 °C for different times (1-8 h), bacterial colonies were counted. n = 3. *P < 0.05, VTK-LL37 group compared to LL37 group; ^#P < 0.05, LL37-VTK group compared to LL37 group. c, d Inhibitory effect of VTK-LL37 on biofilm formation. […] The biofilm was stained with 1% crystal violet, and the precipitates were dissolved in 95% ethanol, followed by detection of absorbance at 570 nm (A570) (c). […]
When the OD600 of the bacterial suspension reached 1.0, the bacteria were transferred to a 96-well plate, and the VTK-LL37 or LL37 peptide was added at final concentrations of 0.5 μmol/L, 1 μmol/L, 2 μmol/L, or 4 μmol/L, followed by incubation at 37 °C. […] Bacterial biofilms were observed by microscopy and quantitated by spectrometry. […]

In test [2] the test system is bacterial strain MSI001. Description: In vitro antibacterial assay (colony counting). It is filed as cell-based, Escherichia coli. The settings on record: 1 × 10^3 CFU, peptide 0.25, 0.5, 1 μmol/L, 37 °C, 1-8 h, colony count, n = 3. The method, then: Fig. 6 Antimicrobial activity of the C7C-LL37 fusion peptides in vitro. a Primary structures and physical properties of the C7C and LL37 fusion peptides, including LL37, VTK-LL37, LL37-VTK, KYY-LL37 and LL37-KYY, ISS-LL37, INS-LL37. Net charge, PI and GRAVY values were acquired as described above. b Inhibitory effect of C7C-LL37 fusion peptides on bacterial growth. A C7C-LL37 fusion peptide or LL37 alone was added to the cultured bacterial strain MSI001 (1 × 10^3 CFU) at final concentrations of 0.25 μmol/L, 0.5 μmol/L and 1 μmol/L. Sterile DPBS was used as control. After incubation with the C7C-LL37 or LL37 peptides at 37 °C for different times (1-8 h), bacterial colonies were counted. n = 3. *P < 0.05, VTK-LL37 group compared to LL37 group; ^#P < 0.05, LL37-VTK group compared to LL37 group. c, d Inhibitory effect of VTK-LL37 on biofilm formation. The VTK-LL37 or LL37 peptide was added to the bacterial culture at a final concentration of 0-4 μmol/L and incubated at 37 °C for 3 days. Bacterial culture medium and the peptides were refreshed every day. The biofilm was stained with 1% crystal violet, and the precipitates were dissolved in 95% ethanol, followed by detection of absorbance at 570 nm (A570) (c). Moreover, the biofilm was observed under a microscope (d). n = 5. *P < 0.05, VTK-LL37 group compared to LL37 group […]

The subject of test [3] is liver, kidney, heart and lung. Nature of the test: Histopathological evaluation of organ injury in septic mice. Particulars: peptide i.v. 1 h after sepsis modeling; tissues at 12 h; HE staining, injury scores; n = 6. In kind it is in vivo, C57BL/6 mice. An excerpt:
(§1) Wild-type C57 mice were intraperitoneally injected with MSI001 bacteria (6 × 10^6 CFU/g body weight) to reproduce a sepsis model. […] Normal saline (NS) was used as control. […] One hour after CLP modeling, the mice were intravenously injected with LL37 or VTK-LL37 peptide at a dosage of 0.2 nmol/g body weight. Equal volume of normal saline (NS) was used as control. […] The mice were intraperitoneally injected with MSI001 bacteria. One hour later, the mice were subjected to tail vein injection (TVI) with VTK-LL37 (VTK-LL37 group), LL37 (LL37 group) or an equivalent volume of NS (sepsis group). Wild-type mice without modeling were used as controls (control group). The blood bacteria were quantitated as colony forming units (CFU) 12 h after injection of bacteria. n = 8. *P < 0.05, compared to control; ^#P < 0.05, compared to sepsis group^; ΔP < 0.05, compared to LL37 group. Results are expressed as the median with range. d Suppression of VTK-LL37 on the production of HMGB1 in the blood of septic mice. […] Twelve hours after bacterial injection, HMGB1 in the serum was quantitated by ELISA. n = 8. *P < 0.05, compared to control; ^#P < 0.05, compared to sepsis group; ^ΔP < 0.05, compared to LL37 group^. Results are expressed as the mean ± SD. e, f Protective effect of VTK-LL37 against organ damage in mice subjected to bacterial injection. […]

Test [4] concerns E. coli MSI001. Nature of the test: Survival of mice subjected to septic modeling with MSI001. In kind it is in vivo, C57BL/6 mice. Particulars: MSI001 6 × 10^6 CFU/g i.p.; peptide 0.2 nmol/g i.v. 1 h later; observed up to 168 h; Kaplan-Meier; n = 20.
Source text: as §1

Consider “CVTKLGSLCVPGVGLLGDFFRKSKEKIGKEFKRIVQRIKDFLRNLVPRTES [VTK-LL37]”, for which the “inhibition of biofilm formation” value in test [1] is “inhibited biofilm formation of E. coli MSI001, and VTK-LL37 had a stronger inhibition of biofilm formation at a low dose than LL37 alone”. For the same sequence, in test [2], the “inhibitory effect on bacterial growth of MSI001” value is listed as “inhibited MSI001 bacterial growth but also showed stronger antibiotic activity than LL37 alone in the early stage (1-3 h); also recorded: stronger bacteriostatic activity than other LL37 fusion peptides”. Besides, in test [3], the sepsis-induced organ injury entry is “alleviated sepsis-induced injury to multiple organs, including the liver, lung, kidney and heart”. For the same sequence, the “survival of septic mice” value in test [4] is recorded as “significantly increased the survival of septic mice”.
